{"source": "patent US11291666B2", "about": "“Uses” (INTRA-CELLULAR THERAPIES, INC., priority 2016, dated 2022)", "key": {"[1]": {"test_system": "BV2 cells", "experiment": "RT-qPCR of selected genes in BV2 cells with ITI-214, cyclase activators and PKA/PKG inhibitors", "type": "cell-based, mouse", "conditions": "10 μM forskolin, 5 μM DEANO or 100 nM ANP", "protocol": "In a further experiment a group of genes is selected for further analysis by RT-qPCR. For comparison, genes are analyzed which have been implicated in the scientific literature in microglial and astrocyte activation, including genes in the complement pathway.\nAll sample values are normalized to an average of 3 reference genes and to vehicle control (ΔΔCt). The error bars represent the mean+/−SEM (n=4). From left to right, for each cytokine grouping, the bars indicate samples treated with: LPS, 0.1 μM 214+LPS, 0.4 μM 214+LPS, 1.1 μM 214+LPS, 3.3 μM 214+LPS, 10 μM 214+LPS, for each particular gene shown on the X-axis. Significant changes between LPS and 10 μM ITI-214+LPS (A) and Vehicle and 10 μM ITI-214 (B) are marked on the X-axis gene names and are calculated using a one-way ANOVA. * p<0.05, **p<0.01, ***p<0.001, ****p<0.0001.\nIn one particular experiment, BV2 cells are treated with 10 μM forskolin (FSK) to activate adenylyl cyclases, 5 μM DEANO to activate soluble guanylyl cyclase, or 100 nM atrial natriuretic peptide (ANP) to activate particulate guanylyl cyclase. […] Upon combining forskolin with ITI-214 some of the effects of ITI-214 inhibition can be increased. […] However, LIF reverts to LPS-level expression when forskolin is added.\nNote that gene expression levels upon addition of PKA or PKG inhibitor to 10 μM ITI-214 are on the order of those relative to LPS treatment alone were reduced to levels equivalent to 3.3 μM ITI-214."}, "[2]": {"test_system": "HL60 cells", "experiment": "Total cGMP levels in PMA-differentiated HL60 cells with ANP and ionomycin (competitive ELISA)", "type": "cell-based, human", "protocol": "We have shown that there is a synergistic effect between ANP and PDE1 inhibition. An immortalized human pro-myeloid cell line (HL60 from ATCC) is grown, differentiated and harvested as described in Bender, A T, and Beavo, J A, 2006, PNAS 103, 460-465. The cells are grown in HEPES buffered RPMI 1640 medium with penicillin, streptomycin, and 10% fetal bovine serum. Phorbol-12-myristate-13-acetate (PMA), at 100 nM for 3 days, is used to differentiate the HL60 cells into macrophage-like cells. Following differentiation, the cells are incubated with a PDE1 inhibitor or vehicle (DMSO) beginning at time 0. At 40 minutes, 5 μM ionomycin (a calcium ionophore) is added. At 50 minutes, 100 nM ANP was added. At 60 minutes, the cells are harvested. Total cGMP levels are measured using a competitive ELISA (Bender and Beavo, 2006)."}, "[3]": {"test_system": "retinal ganglion cells", "experiment": "Optic nerve injury (optic crush) model", "type": "in vivo, mouse", "conditions": "mice; intraocular injection after optic nerve injury; 14 days; FIG. 12", "protocol": "A PDE1 inhibitory compound is tested in an optic nerve injury model (i.e., the “optic crush” model). The studies described below are carried out using the selective PDE1 inhibitor IC200041, which has the following structure:\nIn this model, optic nerve surgeries are carried out on male mice 8 wk of age (average body weight, 20-26 g) under general anesthesia, as described previously (Yin Y, et al., Oncomodulin links inflammation to optic nerve regeneration. Proc Natl Acad Sci USA. 2009; 106:19587-19592). Following nerve injury, 3 μl of fluid is removed from the eye and a solution containing the PDE1 inhibitory compound is injected intraocularly.\nA total of 4 mouse retinas are treated with the PDE1 inhibitor, and phosphate buffered saline (PBS) is administered to a total of 10 mouse retinas as a control. Mice are typically euthanized with an overdose of anesthesia 14 days after optic nerve injury and are perfused with saline and 4% paraformaldehyde (PFA). These mice are 10 weeks old when killed. Optic nerves and eyes are dissected and postfixed in PFA. […] Axons are counted manually in at least 8 longitudinal sections per case at pre-specified distances from the injury site, and these numbers were converted into the number of regenerating axons at various distances."}, "[4]": {"test_system": "BV2 cells", "experiment": "RNAseq analysis of LPS-stimulated BV2 cells, differentially expressed transcripts", "type": "cell-based, mouse", "conditions": "for genes significantly affected by this compound but not the other (Compound 214 / Rolipram): LPS-stimulated BV2 cells", "protocol": "(§1) The test compound is added first, the LPS is added one hour later, and the cells and/or media are harvested at five hours from commencement of the experiment.\nRNASeq: Flashfreeze BV2cells, isolate RNA, prepare a library using polyA selection, and conduct 1×50 bp single read sequencing on the Illumina HiSeq 2500 in High Output mode (using V4 chemistry). Genes are mapped to reference genome (GRCm38) using CLC Genomics Server. Number of reads per sample average ˜17 million. Differential gene expression analysis is performed using DESeq2software (Bioconductor.org). Differentially expressed genes (p<0.01, Waldtest) are reported as log 2(fold change)."}, "[5]": {"test_system": "BV2 cells", "experiment": "Quantitative PCR of inflammatory cytokine mRNA in LPS-treated BV2 cells", "type": "cell-based, mouse", "protocol": "Levels of IL1β are measured using quantitative PCR of IL1β mRNA. IL1β is considered a marker of inflammation. Results are depicted in FIG. 2 (RQ: relative quantification of changes in gene expression in treated versus control samples; ***p<0.01 vs control, √p<0.01 vs LPS alone; ANOVA with Newman-Keuls post-hoc test).\nBV2 cells are pretreated with compound, ITI-214 or rolipram, a PDE4 inhibitor, then stimulated with 50 ng/ml LPS for 4 hours. Expression levels of TNF, IL1β, Ccl2, and IL6 are measured. Normalized mRNA levels are shown as change from vehicle (ΔΔCt) and compared using a one-way ANOVA. […] The mRNA transcripts for TNF, IL1β, and Ccl2—three of the four cytokines studied in vivo—were elevated in BV2 cells treated with 50 ng/ml LPS.\nas §1\n(§2) RTqPCR: RNA from BV2 cells purified using RNeasyKit (Qiagen) and from mouse tissue using TRIzol (Ambion). TaqMan primer-probe assays from Thermo Fisher. mRNA levels for all conditions are normalized to GAPDH and to vehicle control (ΔΔCt). Data are analyzed statistically using one-way ANOVA with the Bonferroni post-test for multiple comparisons."}, "[6]": {"test_system": "inflammatory gene expression in mouse striatum", "experiment": "Inflammatory gene expression in mouse striatum after LPS (Q-PCR)", "type": "in vivo", "conditions": "Striatum Mouse + LPS; initial results", "protocol": "as §2\nThe results are based upon an evaluation of samples using Q-PCR.\nData from a further experiment measuring the effect of PDE1 inhibition on inflammatory gene expression in mouse striatum is depicted in FIG. 7. […] Striatal tissue is isolated and flash frozen, and RNA is extracted. Measurements from RT-qPCR are shown as log 2 fold change (2ΔΔCt). n=4 *p<0.05, **p<0.01, ***p<0.001, ****p<0.0001.\nData from yet another experiment measuring the effect of PDE1 inhibition on inflammatory gene expression in mouse striatum is depicted in FIG. 8. […] Striatal tissue is analyzed for mRNA levels of TNF, IL1β, Ccl2, and IL6. Expression levels are shown as change in Q-PCR signal from vehicle (ΔΔCt) and compared using an ANOVA. * p<0.05, **p<0.01, ***p<0.001."}, "[7]": {"conditions": "BV2 cells, Compound 214 at 10 μM, FIG. 4a"}}}
{"smiles": "CCN(CC)/[N+]([O-])=N/[O-].[Na+]", "note": "[DEANO, reference compound]", "values": [{"measurement": "effect of the activator alone on LPS induction of the selected genes", "setting": "[1]", "value": "little or no effect"}]}
{"smiles": "CN1C(=O)c2c(nn(Cc3ccc(C(F)(F)F)cc3)c2Nc2ccccc2)N2C1=N[C@@H]1CCC[C@@H]12", "note": "[Example 20 of U.S. Pat. No. 8,273,750, (6aR,9aS)-3-(phenylamino)-5,6a,7,8,9,9a-hexahydro-5-methyl-2-(4-(trifluoromethyl)-benzyl)-cyclopent[4,5]imidazo[1,2-a]pyrazolo[4,3-e]pyrimidin-4(2H)-one]", "values": [{"measurement": "cGMP level, ANP in combination with the PDE1 inhibitor versus either alone", "setting": "[2]; 100 nM ANP + 100 nM PDE1 inhibitor", "value": "greater"}, {"measurement": "decreasing cGMP signal caused by activation of PDE1 by ionomycin", "setting": "[2]; PDE1 inhibitor + sub-optimal ANP, ionomycin 5 μM", "value": "synergistically prevented"}, {"measurement": "cGMP level, co-treatment with ANP and the PDE1 inhibitor versus ANP and SCH 51866", "setting": "[2]; SCH 51866 used at 5 μM", "value": "much greater"}, {"measurement": "effect of ionomycin on cGMP when combined with ANP and the PDE1 inhibitor", "setting": "[2]; ionomycin 5 μM", "value": "only a weak cGMP lowering effect"}]}
{"smiles": "CN1C(=O)c2c(nn(Cc3ccc(-c4ccccn4)cc3)c2Nc2ccccc2)N2C1=N[C@@H]1CCC[C@@H]12", "note": "[IC200041]", "values": [{"measurement": "survival of retinal ganglion cells compared with the PBS control", "setting": "[3]", "value": "highly effective"}]}
{"smiles": "CC[C@H](C)[C@@H]1NC(=O)[C@H](CCCNC(=N)N)NC(=O)[C@H](CC(=O)O)NC(=O)[C@H](CCSC)NC(=O)[C@H](CCCNC(=N)N)NC(=O)CNC(=O)CNC(=O)[C@H](Cc2ccccc2)NC(=O)[C@@H](NC(=O)[C@H](CO)NC(=O)[C@H](CO)NC(=O)[C@H](CCCNC(=N)N)NC(=O)[C@H](CCCNC(=N)N)NC(=O)[C@H](CC(C)C)NC(=O)[C@@H](N)CO)CSSC[C@@H](C(=O)N[C@@H](CC(N)=O)C(=O)N[C@@H](CO)C(=O)N[C@@H](Cc2ccccc2)C(=O)N[C@@H](CCCNC(=N)N)C(=O)N[C@@H](Cc2ccc(O)cc2)C(=O)O)NC(=O)CNC(=O)[C@H](CC(C)C)NC(=O)CNC(=O)[C@H](CO)NC(=O)[C@H](CCC(N)=O)NC(=O)[C@H](C)NC(=O)CNC1=O", "note": "[atrial natriuretic peptide, reference compound]", "values": [{"measurement": "effect of the activator alone on LPS induction of the selected genes", "setting": "[1]", "value": "little or no effect"}]}
{"smiles": "COc1ccc(C2CNC(=O)C2)cc1OC1CCCC1", "note": "(stereo not shown) [rolipram, reference compound]", "values": [{"measurement": "mRNA transcripts decreased in the presence of LPS + compound vs. LPS alone", "setting": "[4]; BV2 cells, RNAseq", "value": 209, "unit": "transcripts"}, {"measurement": "transcripts elevated in the presence of LPS + compound vs. LPS alone", "setting": "[4]; BV2 cells, RNAseq", "value": 156, "unit": "transcripts"}, {"measurement": "genes significantly affected by this compound but not the other (Compound 214 / Rolipram)", "setting": "[4]; further RNASeq analysis", "value": 251, "unit": "genes"}, {"measurement": "genes significantly affected by this compound but not the other (Compound 214 / Rolipram)", "setting": "[4]; still a further experiment", "value": 1463, "unit": "genes"}, {"measurement": "Chemokine (C-C) motif Ligand 2 expression (Q-PCR)", "setting": "[5]; BV2 + LPS, initial results", "value": "Down"}, {"measurement": "Interleukin 1 beta expression (Q-PCR)", "setting": "[5]; BV2 + LPS, initial results", "value": "UP UP"}, {"measurement": "Tumor necrosis factor expression (Q-PCR)", "setting": "[5]; BV2 + LPS, initial results", "value": "Down"}, {"measurement": "LPS-induced increase in expression of Ccl2", "setting": "[5]; [7]", "value": "reducing"}, {"measurement": "LPS-induced increase in expression of IL1β", "setting": "[5]; [7]", "value": "increasing"}, {"measurement": "LPS-induced increase in expression of TNFα", "setting": "[5]; [7]", "value": "reducing"}, {"measurement": "Chemokine (C-C) motif Ligand 2 expression (Q-PCR)", "setting": "[6]", "value": "Down"}, {"measurement": "Interleukin 1 beta expression (Q-PCR)", "setting": "[6]", "value": "UP-UP"}, {"measurement": "Interleukin 6 expression (Q-PCR)", "setting": "[6]", "value": "UP-UP"}, {"measurement": "Oncostatin M expression (Q-PCR)", "setting": "[6]", "value": "Down"}, {"measurement": "Tumor necrosis factor expression (Q-PCR)", "setting": "[6]", "value": "Down"}]}
